Results published in patent EP0532716B1, “NEW […] WITH IMUNOMODULATING ACTIVITY AND PREPARATION THEREOF” (INSTITUTO […] T[…] NAVARRA, S.A., priority 1990, dated 1992).
Ends that are not written are not given here.

What was measured:
Assay type in all cases: cell-based
Daudi target cells = assay: 51Cr release assay: cytotoxic activity of peptide-activated lymphomononuclear cells against Daudi target cells; settings: lymphomononuclear cells from three healthy donors, cultured 4 days with 20 micrograms of peptide; Mean ± Standard error
Text: (§1) Generation of cells with cytotoxic activity towards NK sensitive and NK resistant target cells.
(§2) Peripheral blood mononuclear cells from healthy donors were obtained by leukapheresis, processing 5 to 10 liters of whole blood, using a Fenwall CS-3000 continuous-flow cell separator (Fenwall Laboratories, Deerfield, Illinois, USA). Vascular access was obtained with a double lumen central venous catheter.
(§3) Separated lymphomononuclear cells are washed, counted and resuspended at a concentration of 2x10^6 per ml in RPMI-1640 medium containing 10 units of penicillin per ml, 200 µg of gentamycin per ml, 2mM of glutamine per ml and 2,5% of autologous serum in a PL-732 culture bag (Fenwall Laboratories, Deerfield, Illinois, USA).
(§4) The incubation medium contained 20 micrograms of the peptide being studied. • Peptide 1 (Peptide of Example 1). • Peptide 2 (Peptide of Example 2). • Peptide 3 (Peptide of Example 3). • Peptide 4 (Peptide of Example 4). […]. In this pentadecapeptide Proline is absent. This control peptide has in common with the peptides object the invention only aa11=Asp).
(§5) The cells are cultured for 4 days in a moist-air incubator at 37^ºC, 5% CO2 and 21% O2, One ml sample is drawn daily for microbiological studies.
(§6) Changes in the cytotoxic ability of lymphomononuclear cells before and after peptide activation are measured with the ^51Cr release assay, using K562 and Daudi target cells (Table I). Phenotypic changes of lymphomononuclear cells before and after peptide activation are also assessed with fluorescein labeled […] antibodies and automated flow cytometry (Table II). It is well known that lymphomononuclear cells are very heterogeneous, but the presence of surface markers (CD) allows the description of their phenotypes (Weissman IL, Fathman CG, J Exp Med (1973) 137:504; Small M, Herzenberg CA, Weissman IL, Cell Immunol (1975) 15:109).

K562 target cells = assay: 51Cr release assay: cytotoxic activity of peptide-activated lymphomononuclear cells against K562 target cells; settings: lymphomononuclear cells from three healthy donors, cultured 4 days with 20 micrograms of peptide; Mean ± Standard error
Text: as §1, §2, §3, §4, §5, §6

lymphomononuclear cells = assay: Phenotypes of lymphomononuclear cells after peptide activation (fluorescein labeled antibodies, automated flow cytometry); settings: 20 micrograms of peptide, 4 days, three healthy donors, Mean ± Standard error
Method: as §2, §3
The incubation medium contained 20 micrograms of the peptide being studied. • Peptide 1 (Peptide of Example 1). • Peptide 2 (Peptide of Example 2). • Peptide 3 (Peptide of Example 3). • Peptide 4 (Peptide of Example 4). Control Peptide (Ala-Asp-Ala-Gln-Gln-Asn-Lys-Phe-Asn-Lys-Asp-Gln-Gln-Ser-Val. In this pentadecapeptide Proline is absent. This control peptide has in common with the peptides object the invention only aa11=Asp).
as §5, §6

| Molecule | CYTOTOXIC ACTIVITY (%) DAUDI (Daudi target cells) | CYTOTOXIC ACTIVITY (%) K562 (K562 target cells) | CELLS EXPRESSING SURFACE MARKERS (%) CD3 (lymphomononuclear cells) | CELLS EXPRESSING SURFACE MARKERS (%) CD8 (lymphomononuclear cells) | CELLS EXPRESSING SURFACE MARKERS (%) CD11b (lymphomononuclear cells) | CELLS EXPRESSING SURFACE MARKERS (%) CD14 (lymphomononuclear cells) | CELLS EXPRESSING SURFACE MARKERS (%) CD16 (lymphomononuclear cells) | CELLS EXPRESSING SURFACE MARKERS (%) CD56 (lymphomononuclear cells) |
| --- | --- | --- | --- | --- | --- | --- | --- | --- |
| CC(C)[C@H](NC(=O)[C@H](CO)NC(=O)[C@H](CCC(N)=O)NC(=O)[C@H](CCC(N)=O)NC(=O)[C@H](CC(=O)O)NC(=O)[C@H](CCCCN)NC(=O)[C@H](CC(N)=O)NC(=O)[C@H](Cc1ccccc1)NC(=O)[C@H](CCCCN)NC(=O)[C@H](CC(N)=O)NC(=O)[C@H](CCC(N)=O)NC(=O)[C@H](CCC(N)=O)NC(=O)[C@H](C)NC(=O)[C@H](CC(=O)O)NC(=O)[C@H](C)N)C(=O)O [Control Peptide, Ala-Asp-Ala-Gln-Gln-Asn-Lys-Phe-Asn-Lys-Asp-Gln-Gln-Ser-Val, reference compound] | 10 ± 4% | 12 ± 8% |  |  |  |  |  |  |
| CC[C@H](C)[C@H](NC(=O)[C@H](CCC(=O)O)NC(=O)[C@H](CCCCN)NC(=O)[C@H](CO)NC(=O)[C@@H](NC(=O)[C@H](CO)NC(=O)[C@@H]1CCCN1C(=O)[C@H](CC(=O)O)NC(=O)[C@H](CC(=O)O)NC(=O)[C@H](CCCCN)NC(=O)[C@H](CC(C)C)NC(=O)[C@H](CO)NC(=O)[C@H](CCC(N)=O)NC(=O)[C@@H](NC(=O)[C@H](Cc1ccccc1)NC(=O)CNC(=O)[C@@H](N)CC(N)=O)[C@@H](C)CC)C(C)C)C(=O)N[C@@H](CC(C)C)C(=O)N[C@@H](C)C(=O)N[C@@H](CCC(=O)O)C(=O)N[C@@H](C)C(=O)N[C@@H](CCCCN)C(=O)N[C@H](C(=O)O)C(C)C [Peptide 4] | 56 ± 6% | 58 ± 7% |  |  |  |  |  |  |
| CC[C@H](C)[C@H](NC(=O)[C@H](CCC(=O)O)NC(=O)[C@H](CCCCN)NC(=O)[C@H](CO)NC(=O)[C@@H](NC(=O)[C@H](CO)NC(=O)[C@@H]1CCCN1C(=O)[C@H](CC(=O)O)NC(=O)[C@H](CC(=O)O)NC(=O)[C@H](CCCCN)NC(=O)[C@H](CC(C)C)NC(=O)[C@@H](N)CO)C(C)C)C(=O)N[C@@H](CC(C)C)C(=O)N[C@@H](C)C(=O)N[C@H](C(=O)O)C(C)C [Peptide 2] | 62 ± 8% | 62 ± 7% | 58 ± 2% | 18 ± 2% | 24 ± 3% | 18 ± 3% | 22 ± 6% | 17 ± 5% |
| EILNMPNLNEEQRNV [Peptide 3] | 58 ± 9% | 59 ± 9% | 59 ± 3% | 17 ± 2% | 23 ± 4% | 18 ± 3% | 21 ± 5% | 18 ± 5% |
| NVLGAPKKLNESQAV [Peptide 1] | 68 ± 6% | 63 ± 8% | 60 ± 1% | 17 ± 1% | 23 ± 5% | 17 ± 4% | 22 ± 7% | 18 ± 6% |
